Data published in the supplement of paper PMC10307832.

Assays:
Assay in all cases: relative viability (nuclei count vs DMSO), 5 days (fraction); higher = more cells survive
[1] = compound: CC1CC(=O)N(C2=CN=C(N=C2N1C3CCCC3)NC4=C(C=C(C=C4)C(=O)NC5CCN(CC5)C)OC)C [NPK76-II-72-1] + Cc1nc(NC(=O)N2CCC[C@H]2C(N)=O)sc1-c1ccnc(C(C)(C)C(F)(F)F)c1 [Alpelisib] (partner 2 µM)
Outline: (§1)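 Lung cancer cell lines in 1536-well plates were dosed by pin tool the day after seeding, either with one drug alone or with a fixed anchor-drug dose plus five library-drug doses (not always all listed) in √10 steps. After 5 days, cells were fixed and their nuclei stained in one step (final 0.05% Triton X-100, 1% formaldehyde, 1 ug/ml Hoechst), then counted on 4× images. Relative viability is the nuclei count in treated wells divided by that in vehicle wells. Values are medians of duplicate plates.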

[2] = compound: CC[C@@H]1C(=O)N(C)c2cnc(Nc3ccc(C(=O)NC4CCN(C)CC4)cc3OC)nc2N1C1CCCC1 [BI-2536] + CC(=O)c1c(C)c2cnc(Nc3ccc(N4CCNCC4)cn3)nc2n(C2CCCC2)c1=O [Palbociclib] (partner 0.5 µM)
Outline: as §1

[3] = compound: CC[C@@H]1C(=O)N(C)c2cnc(Nc3ccc(C(=O)NC4CCN(C)CC4)cc3OC)nc2N1C1CCCC1 [BI-2536] + NC(=O)Nc1cc(-c2cccc(F)c2)sc1C(=O)N[C@H]1CCCNC1 [AZD7762] (partner 0.2 µM)
Outline: as §1

[4] = compound: CC[C@@H]1C(=O)N(C)c2cnc(Nc3ccc(C(=O)NC4CCN(C)CC4)cc3OC)nc2N1C1CCCC1 [BI-2536] + CC(C)C[C@H](NC(=O)[C@H](Cc1ccccc1)NC(=O)c1cnccn1)B(O)O [Bortezomib] (partner 0.002 µM)
Outline: as §1

Cell Line	relative viability ([1]; first compound 0.01 µM)	relative viability ([1]; first compound 0.03162 µM)	relative viability ([1]; first compound 0.1 µM)	relative viability ([1]; first compound 0.3162 µM)	relative viability ([1]; first compound 1 µM)	relative viability ([2]; first compound 0.01 µM)	relative viability ([2]; first compound 0.03162 µM)	relative viability ([2]; first compound 0.1 µM)	relative viability ([2]; first compound 0.3162 µM)	relative viability ([2]; first compound 1 µM)	relative viability ([3]; first compound 0.01 µM)	relative viability ([3]; first compound 0.03162 µM)	relative viability ([3]; first compound 0.1 µM)	relative viability ([3]; first compound 0.3162 µM)	relative viability ([3]; first compound 1 µM)	relative viability ([4]; first compound 0.01 µM)	relative viability ([4]; first compound 0.03162 µM)	relative viability ([4]; first compound 0.1 µM)	relative viability ([4]; first compound 0.3162 µM)	relative viability ([4]; first compound 1 µM)
BEN	0.967	1.05	1.01	1.02	1.09	0.481	0.506	0.455	0.401	0.366	0.67	0.711	0.521	0.419	0.396	0.61	0.896	0.43	0.223	0.287
NCI-H2170	0.772	0.839	0.777	–	0.789	0.379	0.437	0.363	0.155	0.16	0.854	0.83	0.184	0.146	0.2	–	–	–	–	–
NCI-H1299	1.09	1.07	1.03	1.05	1.06	–	–	–	–	–	–	–	–	–	–	0.985	1.05	0.981	0.419	0.351
EBC-1	0.927	0.931	0.828	0.836	0.906	–	–	–	–	–	–	–	–	–	–	0.477	0.46	0.222	0.217	0.175
NCI-H2342	–	–	–	–	–	–	0.553	0.542	0.394	0.397	–	0.459	0.411	0.267	0.349	–	–	–	–	–
ChaGo-K-1	–	–	–	–	–	0.908	0.845	0.785	0.187	0.188	0.828	0.854	0.644	0.241	0.202	0.905	0.852	0.469	0.301	0.281
COR-L23	0.638	0.821	0.815	0.815	0.822	0.298	0.242	0.139	0.117	0.127	–	–	–	–	–	1.08	0.901	0.27	–	0.101
COR-L 105	0.908	0.907	1.13	0.905	1.13	0.422	0.392	0.353	0.297	0.351	–	–	–	–	–	0.764	0.761	0.344	0.245	0.237
LK-2	1	1.23	1.12	–	0.652	0.586	0.525	0.464	0.15	0.106	0.463	0.5	0.121	0.0816	0.091	–	–	–	–	–
NCI-H596	0.523	0.448	0.405	0.479	0.498	–	–	–	–	–	1.1	1.14	1.11	0.342	0.403	1.09	1.18	0.759	0.733	0.328
NCI-H2023	0.568	0.691	0.592	0.529	0.548	0.382	0.348	0.168	0.102	0.0824	–	–	–	–	–	0.943	0.87	0.193	0.0834	0.0889
NCI-H1944	0.801	0.81	0.871	0.715	0.928	0.304	0.329	0.308	0.173	0.15	0.476	0.611	0.269	0.12	0.13	–	–	–	–	–
NCI-H1793	0.611	0.679	0.677	0.521	0.788	0.328	0.34	0.276	0.168	0.154	0.45	0.519	0.102	0.128	0.123	–	–	–	–	–
NCI-H520	0.918	1.03	0.909	0.859	0.829	0.225	0.216	0.182	0.178	0.178	–	–	–	–	–	0.741	0.321	–	0.194	0.123
A549	0.84	0.824	0.889	0.716	0.769	–	–	–	–	–	–	–	–	–	–	–	–	–	–	–
NCI-H358	0.876	0.827	0.884	0.508	1.01	0.132	0.133	0.104	0.0605	0.0928	0.64	0.408	0.266	0.153	0.177	–	–	–	–	–
NCI-H1563	0.859	0.939	0.948	0.833	0.955	–	–	–	–	–	–	–	–	–	–	0.935	0.802	0.842	0.563	0.683
NCI-H1395	1.02	0.994	0.979	1.17	1.03	0.574	0.516	0.339	0.347	0.375	0.382	0.348	0.319	0.351	0.325	–	–	–	–	–
NCI-H2009	1.19	1.25	1.02	1.14	1.15	0.195	0.171	0.119	0.142	0.0906	–	–	–	–	–	1.02	0.916	0.413	0.156	0.108
SW 900	–	–	–	–	–	0.549	0.487	0.471	0.313	0.219	0.557	0.689	0.568	0.188	0.137	–	–	–	–	–
IA-LM	0.895	0.851	0.657	0.612	0.705	–	–	–	–	–	–	–	–	–	–	0.772	0.623	0.0686	0.0705	0.0718
SK-LU-1	1.04	1.03	0.945	1.01	1.18	0.328	0.419	0.323	0.202	0.221	–	–	–	–	–	0.978	1.12	0.465	0.201	0.174
NCI-H1703	0.316	0.343	0.35	0.314	0.4	–	–	–	–	–	0.141	0.174	0.0928	0.0808	0.0722	0.313	0.252	0.13	0.161	0.11
NCI-H1648	–	–	–	–	–	0.288	0.131	0.251	0.229	0.29	0.767	0.775	0.432	0.332	0.224	–	–	–	–	–
